We go through 1 compound from PMC11416286 (Heliyon, 2024).

This experiment addresses Aβ (1-42) (Homo sapiens, UniProt P05067). As to the kind of experiment: Thioflavin T fluorescence anti-aggregation assay with […] Aβ. It is filed as biochemical.

Aβ (1-42), sequence (P05067 672-713): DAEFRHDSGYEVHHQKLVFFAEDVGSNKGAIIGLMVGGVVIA

In the case of `O=c1oc2c(O)c(O)cc3c(=O)oc4c(O)c(O)cc1c4c23` [EA, Ellagic acid], the IC50 amounted to 8.01 ± 0.5 µM.
